System: SK-N-SH cells
Experiment: Human neuroblastoma cancer cell cytotoxicity assay (CCK-8)
Assay type: cell-based
Conditions: 200 or 300 μM, 1 h exposure, read after 24 h
Description: After examining the efficacy of SHLs at inhibiting biofilm, dispersing established biofilms, and reducing the maximum thickness of biofilms without being toxic to the planktonic bacterial cells, we tested the cytotoxicity of the key potent SHLs on the human neuroblastoma cancer cell line SK-N-SH. These studies were conducted such that the SK-N-SH cells were subjected to the maximum concentrations of the key potent SHLs tested on bacteria.
A previously grown T-flask of SK-N-SH cells was observed under a microscope to confirm the confluence of the cells. Next, the old media was discarded and the adherent cells were washed with ˜10 mL of MEM(−). The wash was discarded and 2 mL of Trypsin-EDTA solution was added to the T-flask and incubated for 10 minutes at 37° C. and at 5% atmosphere of CO2. Afterwards, the flask was viewed under a microscope to determine if the cells were suspended in the solution. Subsequently, ˜8 mL of MEM(+) was added to the flask and carefully mixed via pipette to break-up any large clusters of cells. 100 μL of the culture was added to an Eppendorf tube and combined with 100 μL of […]. A hemocytometer and glass cover slide was carefully cleaned with a kimwipe and ethanol. Placing the glass cover slide on top of the hemocytometer, 10 μL of the mixture in the Eppendorf tube was pipetted into the two grooves on the hemocytometer, avoiding the generation of bubbles. The hemocytometer was viewed one chamber at time under a microscope and the live cells were counted using the hemocytometer cell counting method. The remaining cell culture in the T-flask was diluted with MEM(+) to 25 mL such that there would be ˜5000 cells/mL. 100 μL of the culture was placed into wells on a 96 well plate such that one column had only MEM(+) and the wells on the outer perimeter of the plate were left empty. Four plates were made in this manner so that there would be plates for times 0, 24, 48, and 72 h. The plate was then incubated for 24 h at 37° C. and at 5% atmosphere of CO2. Subsequently, the old media was discarded and the wells were subjected to either 200 μM or 300 μM solutions of compounds 3, 4, 8, and 46 in MEM(+) (100 μL) such that one column still contained only MEM(+) and one column contained MEM(+) and untreated cells. The plate was incubated for 1 h and then the solutions were discarded and fresh MEM(+) media was added (100 μL). Each plate was then incubated for the desired time (0, 24, 48, or 72 h). After incubation, 10 μL of CCK-8 solution was added to each well and then the plate was incubated for 2 h followed by reading the OD450 with a microplate reader.

| Structure (SMILES) | cytotoxicity on human neuroblastoma cancer cells (in words) |
| --- | --- |
| CCCCOc1c(NC2CCCC2)c(=O)c1=O [butoxy-SCPA 46] | toxic |
| C=Cc1c(NC2CCOC2=O)c(=O)c1=O (centres unmarked) [vinyl-SHL 3] | toxic |

From patent US8940911B2, “Squarylated lactones inhibitors for bacterial biofilm formation” (Syracuse University, priority 2012, dated 2015)
